Counter-ions that a name gives are not always drawn.
Key:
Assay type in all cases: in vivo
[1] = system: IL-2; assay: Serum IL-2 concentration (RIA) in goats pre- and post-operation
Procedure: (§1) An experiment was conducted on sixteen castrated adult goats, which were randomly divided into control group (n=8) and treatment group (TG, n=8); housed separately; and fed with the same nutrient level. The TG was treated orally with a cysteamine compound (the cysteamine compound is preferably cysteamine hydrochloride, where a dose of 45 mg/kg of body weight was administered, with 30% of the 45 mg/kg dosage comprising the cysteamine compound) provided by Shanghai Walcom Bio-Chem Ltd). Both groups were subjected to rumen operation and duodenum operation.
(§2) This experiment was conducted in four phases: (a) Roughage phase pre-operation: from day 18 to day 14 before the operation, both groups of goats were fed with roughage (dried peanut stalk) and water; (b) Concentrate phase pre-operation: day 13 to day 1 before the operation (in total 13 days), both groups were fed with roughage and concentrate (50 g/head), and the TG was also treated with a cysteamine compound (using dosages described above) at the same time; (c) Rumen operation phase: after completion of the concentrate phase pre-operation, the rumen operation was performed to affix a fistula on the rumen, which was followed by 18 days of recovery; (d) Duodenum operation phase: 18 days after the rumen operation, a second operation was performed to affix a fistula on the duodenum, following which the goats were allowed to have 17 days of recovery to complete this experiment. The feeding diet during the operation was same as that of concentrate phase per-operation.
(§3) While conducting the experiment, blood samples were periodically collected. In general, blood was collected via the neck vein before morning feeding. Part of the blood from each sample was stored in tubes containing heparin for anti-coagulation. The remaining part of each blood sample was centrifuged and then stored the serum at −20° C. Blood samples were collected at the following times: (a) Day 4 of the Roughage phase pre-operation; (b) Day 13 of the Concentrate phase (one day before the operation, B1); (c) 10 days after the 1st operation (rumen operation); and (d) 6 days and 17 days after the 2nd operation (duodenum operation).
(§4) Serum IL-2, cortisol concentration and lymphatic transformation testing were also performed during the experiment. […] To perform lymphatic cells transformation test, the blood samples from both groups were treated as follows: 3 tubes/sample, with blood sample 100 ul/tube for PHA− (PHA−: without PHA) and 3 tubes/sample for PHA+(PHA+: each tube added with 50 ul PHA diluted solution); cells in both PHA− and PHA+ were cultured for total 72 hours. After 48 hours of cell culture, 1 uL ^3H-TdR was added to each tube with and mixed with cells and incubated further for 24 hours. At the completion of the culturing process, the cells were lysed. The lysate from both PHA− and PHA+ tubes were transferred to scintillation bottles, dried at 80° C., then added with 5 ml scintillation solution. The solutions were stored overnight and tested for cpm. SI index implies the rate of lymphatic cells transformation induced by lectin, SI=cpm(PHA+)/cpm(PHA−).
(§5) IL-2 and cortisol testing kits were used. To prepare RPMI-1640 cell culture medium, RPMI-1640 powder was added with distillated water and filtered, and 20% Fetal Bovine Serum, Penicillin (100 U/ml) as well as Streptomycin (100 U/ml) was added. 2 ml culture medium solution was then added to each tube. In addition, diluted PHA, [Methy-^3H] Thymidine with radioactivity 1 mci/m, and Scintillation solution: PPO (2,5, Diphenyloxazole,) 5 g POPOP(1,4bis [5-phenyloxazolyl] benzene) 0.3 g Dimethyl benzene: 800 mL; 100% ethanol: 200 ml were added to each tube.
All data from the experiment (see Table 1) were expressed in mean±SE and analyzed by Excel software for t-test analysis, where P<0.05 implies significant difference, and 0.05<P<0.15 implies changes. The symbol “§” in Table 1 denotes TG treated with Cysteamine. […]

[2] = system: lymphatic cells; assay: Lymphatic cells transformation test (PHA, 3H-TdR, SI) on blood of goats pre- and post-operation
Procedure: as §1, §2
While conducting the experiment, blood samples were periodically collected. In general, blood was collected via the neck vein before morning feeding. Part of the blood from each sample was stored in tubes containing heparin for anti-coagulation. […]
IL-2 and cortisol testing kits were used. […] Thymidine with radioactivity 1 mci/m, and Scintillation solution: PPO (2,5, Diphenyloxazole,) 5 g POPOP(1,4bis [5-phenyloxazolyl] benzene) 0.3 g Dimethyl benzene: 800 mL; 100% ethanol: 200 ml were added to each tube.

[3] = system: cortisol; assay: Serum cortisol concentration (RIA) in goats pre- and post-operation
Procedure: as §1, §2, §3, §4, §5
Cortisol concentrations of the two groups before the operation were substantially similar (20.51±4.1 for the control group versus 20.32±4.0 ug 1^−1 for the TG). Changes in cortisol concentration levels in the TG before and after the 1st operation were slight. […]

[4] = system: Male C57BL/6N mice; assay: Relative weights of spleen and thymus to body weight in mice; conditions: 30 days
Source text: Male C57BL/6N mice were used in Example 2, 28 mice in total. The 28 mice were used for pretest for 7 days before the treatment began. Two groups of 14 mice were then created. […] Each group contained […]. The treatment period was for 30 days. Lymphocyte transformation rate in plasma, white blood cell (WBC) count, natural killer cell activity, Plasma IL-2 (Kit provided by Jinginei Biotech) and IL-6 (Kit provided by Bender MedSystems) measurements, and antibody forming, cell count were performed according to methods known to the skilled artisan (see “Medical Immunology Experiment,” Publisher: People Hygiene, Published in 1999 in China, Editor: Xi Chuan Ping). Five days before the end of the treatment, 12 mice from each group (each replicate for 2 mice) were immunized with 0.5 ml of 2% sheep RBC (equivalent to −2×10^8 cells per ml) for testing spleen B-cells. The relative weights of spleen and thymus to body weight (mg/100 g BW) were also measured. All statistical analyses were performed on ANOVA. After conducting all tests and analyses, the relative weight of certain immune organs, namely the thymus and spleen, were measured, as illustrated in Table 4.

[5] = system: Male C57BL/6N mice; assay: White blood cell (WBC) count in mice; conditions: 30 days
Source text: (§6) Male C57BL/6N mice were used in Example 2, 28 mice in total. The 28 mice were used for pretest for 7 days before the treatment began. Two groups of 14 mice were then created. […] Each group contained six replicates and each replicate contained 8 mice. The treatment period was for 30 days.
(§7) Lymphocyte transformation rate in plasma, white blood cell (WBC) count, natural killer cell activity, Plasma IL-2 (Kit provided by Jinginei Biotech) and IL-6 (Kit provided by Bender MedSystems) measurements, and antibody forming, cell count were performed according to methods known to the skilled artisan (see “Medical Immunology Experiment,” Publisher: People Hygiene, Published in 1999 in China, Editor: Xi Chuan Ping). Five days before the end of the treatment, 12 mice from each group (each replicate for 2 mice) were immunized with 0.5 ml of 2% sheep RBC (equivalent to −2×10^8 cells per ml) for testing spleen B-cells. The relative weights of spleen and thymus to body weight (mg/100 g BW) were also measured. All statistical analyses were performed on ANOVA.
(§8) The WBC count, lymphocyte transformation rate (specifically in the spleen), antibody forming cell, and natural killer cell killing rate (based on the killing rate of K562 cells by natural killer cell) were measured and analyzed, as illustrated in Tables 4and5.

[6] = system: lymphocyte; assay: Lymphocyte transformation rate (SI value, PHA) in mice; conditions: 30 days
Source text: Male C57BL/6N mice were used in Example 2, 28 mice in total. The 28 mice were used for pretest for 7 days before the treatment began. Two groups of 14 mice were then created. […] Each group contained six replicates and each replicate contained 8 mice. The treatment period was for 30 days. Lymphocyte transformation rate in plasma, white blood cell (WBC) count, natural killer cell activity, Plasma IL-2 (Kit provided by Jinginei Biotech) and IL-6 (Kit provided by Bender MedSystems) measurements, and antibody forming, cell count were performed according to methods known to the skilled artisan (see “Medical Immunology Experiment,” Publisher: People Hygiene, Published in 1999 in China, Editor: Xi Chuan Ping). Five days before the end of the treatment, 12 mice from each group (each replicate for 2 mice) were immunized with 0.5 ml of 2% sheep RBC (equivalent to −2×10^8 cells per ml) for testing spleen B-cells. The relative weights of spleen and thymus to body weight (mg/100 g BW) were also measured. All statistical analyses were performed on ANOVA. The WBC count, lymphocyte transformation rate (specifically in the spleen), antibody forming cell, and natural killer cell killing rate (based on the killing rate of K562 cells by natural killer cell) were measured and analyzed, as illustrated in Tables 4and5. […]

[7] = system: spleen B-cells; assay: Antibody forming cell count (spleen B-cells after sheep RBC immunization) in mice; conditions: 30 days, immunized with sheep RBC
Source text: as §6, §7, §8

[8] = system: K562 cells; assay: Natural killer cell killing rate in mice; conditions: 30 days, killing of K562 cells
Source text: as §6, §7, §8

[9] = system: IL-2; assay: Plasma IL-2 measurement in mice; conditions: 30 days
Source text: (§9) Male C57BL/6N mice were used in Example 2, 28 mice in total. The 28 mice were used for pretest for 7 days before the treatment began. Two groups of 14 mice were then created. […] Each group contained six replicates and each replicate contained 8 mice. The treatment period was for 30 days. Lymphocyte transformation rate in plasma, white blood cell (WBC) count, natural killer cell activity, Plasma IL-2 (Kit provided by Jinginei Biotech) and IL-6 (Kit provided by Bender MedSystems) measurements, and antibody forming, cell count were performed according to methods known to the skilled artisan (see “Medical Immunology Experiment,” Publisher: People Hygiene, Published in 1999 in China, Editor: Xi Chuan Ping). Five days before the end of the treatment, 12 mice from each group (each replicate for 2 mice) were immunized with 0.5 ml of 2% sheep RBC (equivalent to −2×10^8 cells per ml) for testing spleen B-cells. The relative weights of spleen and thymus to body weight (mg/100 g BW) were also measured. All statistical analyses were performed on ANOVA.

[10] = system: IL-6; assay: Plasma IL-6 measurement in mice; conditions: 30 days
Source text: as §9

## NCCS [Cysteamine hydrochloride, cysteamine hydrochloride]
[1]; after 17 days from the 2nd operation
  difference in IL-2 concentration levels between the two groups: had disappeared
[1]; after the first operation (Day 10 after 1st, Day 6 after 2nd operation), P<0.05
  TG IL-2 concentration levels higher than the control group: 90-100%
[1]; treatment group
  IL-2 concentration in TG, pre- versus post-operation: no significant difference between pre- and post-operation
[1]; treatment group n=8, oral 45 mg/kg BW (30% cysteamine compound), pre-operation Concentrate phase, listed as Cysteamine, hydrochloride, 45 mg/kg
  IL-2 serum concentration: 0.97 ± 0.15 µg/L
[1]; treatment group n=8, oral 45 mg/kg BW (30% cysteamine compound), pre-operation Concentrate phase, listed as cysteamine compound, hydrochloride, 45 mg/kg
  IL-2 serum concentration: 0.97 ± 0.15 µg/L
[1]; treatment group, oral 45 mg/kg BW, after 1st (rumen) operation, Day 10, listed as Cysteamine, hydrochloride, 45 mg/kg
  IL-2 serum concentration: 1.32 ± 0.10 ^A ug/l
[1]; treatment group, oral 45 mg/kg BW, after 1st (rumen) operation, Day 10, listed as cysteamine compound, hydrochloride, 45 mg/kg
  IL-2 serum concentration: 1.32 ± 0.10 µg/L
[1]; treatment group, oral 45 mg/kg BW, after 2nd (duodenum) operation, Day 6, listed as Cysteamine, hydrochloride, 45 mg/kg
  IL-2 serum concentration: 0.95 ± 0.06 ^B ug/l
[1]; treatment group, oral 45 mg/kg BW, after 2nd (duodenum) operation, Day 6, listed as cysteamine compound, hydrochloride, 45 mg/kg
  IL-2 serum concentration: 0.95 ± 0.06 µg/L
[1]; treatment group, oral 45 mg/kg BW, after 2nd (duodenum) operation, Day 17
  IL-2 serum concentration: 1.02 ± 0.08 µg/L
[2]; TG versus control group, P<0.05
  degree of decrease in lymphatic cells transformation rate caused by surgical operations: significantly smaller than that of the control group
[2]; six days after the 2nd/duodenum operation, P<0.05
  rate of TG lymphatic cell transformation increased compared to the rate of the control group: 3.5 fold
[2]; treatment group, oral 45 mg/kg BW, Concentrate phase pre-operation, P=0.14 vs control
  lymphatic cells transformation rate (SI): 132.4±20.3
[3]; TG, before the operation
  cortisol concentration before the operation: 20.32±4.0 ug 1^−1
[3]; treatment group
  changes in cortisol concentration levels in the TG before and after the 1st operation: slight
[3]; treatment group n=8, oral 45 mg/kg BW, pre-operation Concentrate phase
  cortisol serum concentration: 20.3 ± 4.0 µg/L
[3]; treatment group, after 1st operation, Day 10
  cortisol serum concentration: 20.9 ± 3.7 µg/L
[3]; treatment group, after 2nd operation, Day 6
  cortisol serum concentration: 21.2 ± 5.2 µg/L
[3]; treatment group, after 2nd operation, Day 17
  cortisol serum concentration: 20.7 ± 5.8 µg/L
[4]; Treatment 1: 40 mg/kg BW oral
  Spleen weight: 298 ± 5.03 mg/100 g of body weight
  Thymus weight: 549 ± 1.89 ^B mg/100 g of body weight
[4]; Treatment 2: 80 mg/kg BW oral
  Spleen weight: 296 ± 7.50 mg/100 g of body weight
  Thymus weight: 567 ± 7.18 ^A mg/100 g of body weight
[5]; Treatment 1: 40 mg/kg BW oral
  WBC Count: 7.12 ± 0.65 10^9/L
[5]; Treatment 2: 80 mg/kg BW oral
  WBC Count: 7.53 ± 0.55 10^9/L
[6]; Treatment 1: 40 mg/kg BW oral
  Lymphocyte Transformation (SI Value, Stimulation Index): 1.15 ± 0.02 ^B
[6]; Treatment 2: 80 mg/kg BW oral
  Lymphocyte Transformation (SI Value, Stimulation Index): 1.24 ± 0.05 ^A
[7]; Treatment 1: 40 mg/kg BW oral
  Antibody Forming Cell (OD, Optical Density): 1.48 ± 0.19 ^A OD
[7]; Treatment 2: 80 mg/kg BW oral
  Antibody Forming Cell (OD, Optical Density): 0.91 ± 0.51 ^C OD
[8]; Treatment 1: 40 mg/kg BW oral
  NK Killing Rate: 92.19 ± 2.20%
[8]; Treatment 2: 80 mg/kg BW oral
  NK Killing Rate: 93.60 ± 2.21%
[9]; Treatment 1: 40 mg/kg BW oral
  Plasma IL-2: 5.88 ± 0.53 pg/mL
[9]; Treatment 2: 80 mg/kg BW oral
  Plasma IL-2: 5.76 ± 0.50 pg/mL
[10]; Treatment 1: 40 mg/kg BW oral
  Plasma IL-6: 226.20 ± 37.93 pg/mL
[10]; Treatment 2: 80 mg/kg BW oral
  Plasma IL-6: 247.00 ± 51.76 pg/mL
